# Data published in US9115122B2, “Non-ATP dependent inhibitors of extracellular signal-regulated kinase (ERK)” (UNIVERSITY OF MARYLAND, BALTIMORE, priority 2012, dated 2015).
# Key:
# A375 melanoma cells [1] = assay: Dose-response growth inhibition (GI50) of select compounds; assay type: cell-based; settings: Homo sapiens, A-375, 48 h, two days
# Procedure: (§1) An example of the dose response curve for compound 30h and the BRaf inhibitor PLX4032 for inhibiting the growth of melanoma cell lines is shown in FIG. 14. […] A summary of GI50 values for select compounds along with comparisons to know ERK pathway inhibitors in various cell lines is shown in Table 13. […] First, thiazolidinedione compounds have been identified to be selective inhibitors of cancer cell lines containing activated ERK signaling. Second, changes in the 4-ethoxyphenyl component of the parent compound 76 improve selectivity and potency for inhibiting melanoma cell growth. Third, compound 30h is a potent inhibitor of melanoma cell lines that have become resistant to the clinically relevant BRaf and MEK inhibitors. […] Lastly, 30h is as potent as the ATP-competitive pyrazolopyridazinamine ERK inhibitor (FR180204) in preventing melanoma cell proliferation and provides an alternative non-ATP-dependent approach to target cancer cells that are dependent on active ERK signaling.
# (§2) Melanoma cells (A375, SK-MEL-28, and RPMI7951) were seeded at a density of 5,000 per well in 96-well plate. After overnight incubation, cells were treated with varying doses of PLX4032 (A) or 31h (B) for two days. Cell viability was determined by the addition of Cell Titer-Blue Reagent (20 μL/well) followed by 2 hours of incubation at 37° C. after which fluorescence was recorded (555/585 nm). Cell viability was expressed as percentage of vehicle control and data represent the average of three individual experiments.
# SK-MEL-28 melanoma cells [2] = assay: as above; assay type: cell-based; settings: Homo sapiens, SK-MEL-28, 48 h, two days
# Procedure: as §1, §2
# RPMI7951 melanoma cells [3] = assay: as above; assay type: cell-based; settings: Homo sapiens, RPMI-7951, 48 h, two days
# Procedure: as §1, §2
# [4] = system: activator protein-1 (AP-1) promoter; assay: AP-1 promoter luciferase assay, HeLa cells (Example 4); assay type: cell-based; settings: EGF
# Procedure: (§3) HeLa cells were seeded in 24-well plates (4×10^4 cells/well) and incubated 18 hours prior to achieve ˜60-70% confluent. Cells were transfected with activator protein-1 (pAP1(PMA)-TA-Luc; Clontech) or the serum response element (pGL4.33-SRE; Promega) luciferase reporter plasmids (250 ng/well) using Lipofectamine™ (Invitrogen). After 16 hours, cells were treated with increasing amount of compounds as indicated for 20 minutes, followed by stimulation with EGF (25 ng/mL) for 4.5 hr. The luciferase activity in the cell extracts was determined with a Dual Luciferase Assay System (Promega) according to the manufacturer's instructions. Luciferase activities were monitored with a Lumat LB 9507 luminometer (Berthold Technology) and data were normalized to the amount of protein in each sample.
# HeLa cells = assay: Dose-response growth inhibition (GI50) of select compounds; assay type: cell-based; settings: Homo sapiens, HeLa
# Jurkat cells = assay: as above; assay type: cell-based; settings: Homo sapiens, Jurkat
# [5] = system: serum response element (SRE); assay: SRE promoter luciferase assay, HeLa cells (Example 4); assay type: cell-based; settings: EGF
# Procedure: as §3
# HL-60 leukemic cells = assay: Cell proliferation WST-1 assay, single dose (Example 4); assay type: cell-based; settings: 100 μM, 48 hours
# In short: (§4)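 Proliferation is measured by WST-1 reduction: after roughly 5000 cells per well rest 16-20 hours, they receive compound for 48 hours, and the signal is normalized to DMSO control.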
# A375 melanoma cells [6] = assay: as above; assay type: cell-based; settings: 100 μM, 48 hours
# In short: as §4
# SK-MEL-28 melanoma cells [7] = assay: as above; assay type: cell-based; settings: 100 μM, 48 hours
# In short: as §4
# RPMI-7951 melanoma cells = assay: as above; assay type: cell-based; settings: 100 μM, 48 hours
# In short: as §4
# [8] = system: Jurkat T-cell leukemia cells; assay: as above; assay type: cell-based; settings: 100 μM, 48 hours
# In short: as §4
# [9] = system: HeLa cervical carcinoma cells; assay: as above; assay type: cell-based; settings: 100 μM, 48 hours
# In short: as §4
# [10] = basic group replacing the ethylamine group; cited from earlier work
# [11] = system: MEK1-induced AP-1 promoter activity; assay: AP-1 promoter luciferase assay, HeLa cells expressing active MEK1 mutant; assay type: cell-based; settings: Homo sapiens, 4 hours, read-out: IC50 inhibition of MEK1-induced AP-1 promoter activity
# Procedure: FIG. 4. Compound SF-3-026 and analogs inhibit SRE and AP-1 transcription factor function. (a) HeLa cells were transfected with constructs containing SRE or AP-1 promoters driving luciferase expression and then stimulated with EGF in the presence or absence of SF-3-026 for 4 hours followed by measurements of luciferase activity. Cells treated with U0126 were used as a positive inhibitor control. (b and c) HeLa cells were prepared and treated as in (a) with the indicated concentrations of SF-3-026 or analogs for 4 hours followed by the measurement of luciferase activity regulated by the SRE (b) or AP-1 (c) promoters. Data in (b and c) were normalized to EGF-only treatment and represent the mean and standard deviation from three independent experiments. (d) Compound SF-3-026 and analogs inhibit MEK1-induced AP-1 transcription factor function. HeLa cells were transfected with the AP-1 promoter construct and a constitutively active MEK1 mutant in the presence (10 μM) or absence of the MEK1/2 inhibitor (U0126) or an ATP-competitive ERK inhibitor (ERKi) for 4 hours followed by measurements of luciferase activity. (e) Cells expressing the AP-1 promoter and an active MEK-1 construct were treated with the indicated concentrations of SF-3-026 or analogs for 4 hours followed by the measurement of luciferase activity. Data in (e) were normalized to active MEK1-only treatment and represent the mean and standard deviation from three independent experiments.
# as §3, with “(40,000” for “(4×10^4”, “hours” for “hours prior”, “pre-treated” for “treated”, “varying amounts” for “increasing amount”, “hr. In some experiments, cells transfected with the pAP1(PMA)-TA-Luc promoter and a constitutively active MEK1 mutant cDNA were treated with varying amounts of compounds during the last 4 hours of incubation.” for “hr.”, “sample. […]” for “sample.”
# A375 melanoma cells [12] = assay: Cell proliferation, fluorescent Cell Titer Blue Assay (Example 1); assay type: cell-based; settings: Homo sapiens, A-375; 48 hours
# Procedure: (§5) FIG. 5. Dose dependent inhibition of cancer cell proliferation in vitro by SF-3-026 and analogs. A375 (closes circles), RPM17951 (closed squares), HeLa (open circles), or Jurkat (open squares) cells were treated for 48 hours with indicated concentration of (a) SF-3-026, (b) SF-2-027, (c) SF-2-029, or (d) SF-2-030 and cell proliferation was assessed by the fluorescent Cell Titer Blue Assay. The data were reproduced in 3 separate experiments.
# (§6) Cells were seeded at 25,000 cells/well in 96-well plate and cultured overnight. Cells were treated for 24 hours with various concentrations of compounds and cell viability or caspase 3/7 activity were measured according to manufacturer's instructions using the fluorescent Cell Titer Blue Assay (Promega) or luminescent Caspase 3/7 Glo Assay (Promega).
# (§7) It was next determined whether inhibition of AP-1 proteins by SF-3-026 and analogs affected the proliferation of cancer cells driven by mutations that constitutively activate the ERK1/2 pathway. For these experiments, A375 and RPMI7951 melanoma cells, which have a valine to glutamate mutation on residue 600 in BRaf that causes constitutive ERK1/2 activation, were chosen. Moreover, RPMI7951 cells are resistant to clinically used BRaf inhibitors due to overexpression of MAP3K8 (the gene encoding COT/Tp12) that re-activates ERK1/2 signaling. Both melanoma cells lines were treated with varying doses of SF-3-026 or analogs and cell viability was compared to HeLa cervical carcinoma and Jurkat T-cell leukemia cells, which are p53 defective but contain no known activating mutations in the ERK1/2 pathway.
# RPMI7951 melanoma cells [13] = assay: as above; assay type: cell-based; settings: Homo sapiens, RPMI-7951; 48 hours
# Procedure: as §5, §6, §7
# [14] = system: Jurkat T-cell leukemia cells; assay: as above; assay type: cell-based; settings: Homo sapiens, 48 hours
# Procedure: as §5, §6, §7
# [15] = system: HeLa cervical carcinoma cells; assay: as above; assay type: cell-based; settings: Homo sapiens, 48 hours
# Procedure: as §5, §6, §7
Compound,GI50 (A375 melanoma cells [1]) [µM],GI50 (SK-MEL-28 melanoma cells [2]) [µM],GI50 (RPMI7951 melanoma cells [3]) [µM],inhibition of ERK-mediated AP-1 promoter activity [4],GI50 (HeLa cells) [µM],GI50 (Jurkat cells) [µM],inhibition of ERK-mediated SRE promoter activity [5],Cell Viability (% of Vehicle) HL-60 (HL-60 leukemic cells),Cell Viability (% of Vehicle) A375 (A375 melanoma cells [6]),Cell Viability (% of Vehicle) SK-MEL-28 (SK-MEL-28 melanoma cells [7]),Cell Viability (% of Vehicle) RPMI-7951 (RPMI-7951 melanoma cells),Cell Viability (% of Vehicle) Jurkat [8],Cell Viability (% of Vehicle) HeLa [9],pKa [10],IC50 [11] [µM],GI50 (A375 melanoma cells [12]) [µM],GI50 (RPMI7951 melanoma cells [13]) [µM],GI50 [14] [µM],GI50 [15] [µM]
"NCCN1C(=O)S/C(=C\c2ccc(OCc3ccccc3)cc2)C1=O [Compound 30h, (Z)-3-(2-aminoethyl)-5-(4-(benzyloxy)benzylidene)thiazolidine-2,4-dione]",7,9,7,less potent than compounds 76 and 30g at lower concentrations,> 100,> 100,less potent than compounds 76 and 30g at lower concentrations,5.2 ± 2 % of Vehicle,0.6 ± 0.4 % of Vehicle,1.0 ± 1 % of Vehicle,0.2 ± 0.04 % of Vehicle,87 ± 5 % of Vehicle,59 ± 3 % of Vehicle,–,–,–,–,–,–
"[H]/N=C(/N)NCCN1C(=O)SC(=Cc2ccc(OCC)cc2)C1=O [Compound 28c, (Z)-1-(2-(5-(4-ethoxybenzylidene)-2,4-dioxothiazolidin-3-yl)ethyl)guanidine]",–,–,–,–,–,–,–,20 ± 6 % of Vehicle,31 ± 4 % of Vehicle,55 ± 6 % of Vehicle,42 ± 6 % of Vehicle,6.5 ± 0.5 % of Vehicle,17 ± 2 % of Vehicle,~12,–,–,–,–,–
Cc1ccc(S(=O)(=O)OC2C=CS(=O)(=O)C2)cc1 (stereo not shown) [SF-3-027],–,–,–,–,–,–,–,–,–,–,–,–,–,–,~40,5.5,3.1,> 50,22
"CCOc1ccc(/C=C2\SC(=O)N(Cc3cccc(N)n3)C2=O)cc1 [Compound 28b, (Z)-3-((6-aminopyridin-2-yl)methyl)-5-(4-ethoxybenzylidene)thiazolidine-2,4-dione]",–,–,–,–,–,–,–,107 ± 26 % of Vehicle,111 ± 1 % of Vehicle,86 ± 3 % of Vehicle,101 ± 4 % of Vehicle,105 ± 5 % of Vehicle,87 ± 6 % of Vehicle,~6,–,–,–,–,–
"CCOc1ccc(/C=C2\SC(=O)N(CCCN)C2=O)cc1 [Compound 22a, (Z)-3-(3-aminopropyl)-5-(4-ethoxybenzylidene)thiazolidine-2,4-dione]",24,46,17,–,–,–,selective inhibition of the SRE promoter activity,8.0 ± 72 % of Vehicle,0.7 ± 0.1 % of Vehicle,0.5 ± 0.01 % of Vehicle,0.6 ± 0.1 % of Vehicle,9.0 ± 2 % of Vehicle,12 ± 2 % of Vehicle,–,–,–,–,–,–
"CCOc1ccc(/C=C2\SC(=O)N(Cc3cnc[nH]3)C2=O)cc1 [Compound 28a, (Z)-3((1H-imidazol-5-yl)methyl)-5-(4-ethoxybenzylidene)thiazolidine-2,4-dione]",–,–,–,–,–,–,–,123 ± 20 % of Vehicle,101 ± 2 % of Vehicle,74 ± 6 % of Vehicle,70 ± 2 % of Vehicle,106 ± 6 % of Vehicle,80 ± 4 % of Vehicle,~7,–,–,–,–,–
